Like-named read-outs stand apart in the source and are kept apart here. One block for each compound: values may come before it.
Biological target: T1, PLK4 (Homo sapiens, UniProt O00444)
T1 sequence (O00444 1-970): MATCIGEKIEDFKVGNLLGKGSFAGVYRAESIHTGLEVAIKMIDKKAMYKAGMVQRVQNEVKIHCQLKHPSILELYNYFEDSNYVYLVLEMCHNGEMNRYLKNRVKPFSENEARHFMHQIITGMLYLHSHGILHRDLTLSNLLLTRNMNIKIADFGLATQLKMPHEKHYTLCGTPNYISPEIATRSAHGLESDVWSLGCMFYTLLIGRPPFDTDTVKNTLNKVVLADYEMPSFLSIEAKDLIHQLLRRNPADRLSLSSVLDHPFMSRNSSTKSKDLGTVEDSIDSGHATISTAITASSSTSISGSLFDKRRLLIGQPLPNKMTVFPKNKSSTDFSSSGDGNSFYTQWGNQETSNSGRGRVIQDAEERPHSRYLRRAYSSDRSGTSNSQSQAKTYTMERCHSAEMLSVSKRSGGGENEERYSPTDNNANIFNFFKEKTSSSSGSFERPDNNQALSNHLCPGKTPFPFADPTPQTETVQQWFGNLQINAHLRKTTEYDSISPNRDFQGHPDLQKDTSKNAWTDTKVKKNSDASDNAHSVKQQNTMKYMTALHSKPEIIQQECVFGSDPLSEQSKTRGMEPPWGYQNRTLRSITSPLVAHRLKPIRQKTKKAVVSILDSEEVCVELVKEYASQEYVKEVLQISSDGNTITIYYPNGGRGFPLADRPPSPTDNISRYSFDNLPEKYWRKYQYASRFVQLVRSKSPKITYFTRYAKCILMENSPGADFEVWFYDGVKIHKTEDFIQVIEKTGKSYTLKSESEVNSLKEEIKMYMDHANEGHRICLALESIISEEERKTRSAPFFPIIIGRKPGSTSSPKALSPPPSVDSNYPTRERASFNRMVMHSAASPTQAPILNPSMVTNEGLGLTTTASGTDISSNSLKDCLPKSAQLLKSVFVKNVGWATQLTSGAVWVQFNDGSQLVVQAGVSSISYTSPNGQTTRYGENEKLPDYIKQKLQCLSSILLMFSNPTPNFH
Assay: biochemical
Design: Eurofins DiscoverX kinase panel, competitive binding assay at 1 uM, percent of DMSO control
Settings: competitive binding, percent of DMSO control
Method in brief: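 Single-point profiling at 1 µM compound in a competition-binding format against 96 kinases, read out as POC relative to control; n = 1.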

- remaining activity at 1 µM (read-out: Kinome Profiling performed by Eurofins DiscoverX / AM-1882, 1.0 µM / POC): 93.5%
Compound: CC(C)(C)NS(=O)(=O)c1cccc(NC(=O)c2ccc(S(=O)(=O)NC(C)(C)C)cc2N2CCC3(CC2)CC3)c1 [AM-1882]

- remaining activity at 1 µM (read-out: Kinome Profiling performed by Eurofins DiscoverX / AM-5308, 1.0 µM / POC): 87.5%
Compound: C[C@@H]1CN(c2cccc(NC(=O)c3ccc(NS(=O)(=O)CCO)cc3N3CCC4(CC3)CC4)n2)CCO1 [AM-5308]

- remaining activity at 1 µM (read-out: Kinome Profiling performed by Eurofins DiscoverX / AM-0277, 1.0 µM / POC): 100%
Compound: CC(C)(CO)Nc1ccc(C(=O)Nc2cccc(S(=O)(=O)C3CCCC3)c2)c(N2CCC3(CC2)CC3)n1 [AM-0277]

— paper PMC10824666 (Nature Cancer, 2023)
